Test results as given in ChEMBL document CHEMBL1201862, “PubChem BioAssay data set” (2004).
Values belong to the molecule of their own block, whether it stands above or below them. Calls of active or inactive are those of the source.

How the values were obtained:
[1] = target: Voltage-dependent T-type calcium channel subunit alpha-1H (Homo sapiens, UniProt O95180); type: functional;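 also: channel activity triggered by adding a high calcium stimulation buffer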
[2] = target: Peroxisome proliferator-activated receptor gamma/Nuclear receptor coactivator 2 (Homo sapiens, UniProt P37231); experiment: (§1) TR-FRET dose response biochemical High Throughput Screening assay for agonists of the steroid receptor coactivator 2 (SRC-2) recruitment by the peroxisome proliferator-activated receptor gamma (PPAR gamma): non-selective agonists. [Related pubchem assays: 1297, 1032 ]; type: functional
[3] = target: Peroxisome proliferator-activated receptor gamma/Nuclear receptor coactivator 1 (Homo sapiens, UniProt P37231); experiment: as §1, with “1 (SRC-1)” for “2 (SRC-2)”, “assays (depositor defined):AID1300, AID1808, AID504735, AID631]” for “assays: 1297, 1032 ]”; type: protein assay
Peroxisome proliferator-activated receptor gamma/Nuclear receptor coactivator 1, sequence (P37231 whole entry): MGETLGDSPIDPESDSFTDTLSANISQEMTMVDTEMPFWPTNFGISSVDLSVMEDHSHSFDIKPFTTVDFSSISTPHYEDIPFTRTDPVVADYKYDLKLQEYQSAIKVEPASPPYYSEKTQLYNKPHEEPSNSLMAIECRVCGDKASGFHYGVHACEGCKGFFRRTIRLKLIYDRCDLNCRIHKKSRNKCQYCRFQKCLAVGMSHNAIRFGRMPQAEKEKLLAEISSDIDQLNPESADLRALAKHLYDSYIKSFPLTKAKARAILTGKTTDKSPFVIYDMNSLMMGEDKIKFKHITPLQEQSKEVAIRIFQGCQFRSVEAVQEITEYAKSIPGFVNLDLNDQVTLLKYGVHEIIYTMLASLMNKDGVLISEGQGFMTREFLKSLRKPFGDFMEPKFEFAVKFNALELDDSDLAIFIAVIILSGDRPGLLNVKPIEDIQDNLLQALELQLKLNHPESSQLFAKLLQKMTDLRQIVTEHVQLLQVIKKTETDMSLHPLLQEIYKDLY
Peroxisome proliferator-activated receptor gamma/Nuclear receptor coactivator 1, sequence (Q15788 whole entry, further chain): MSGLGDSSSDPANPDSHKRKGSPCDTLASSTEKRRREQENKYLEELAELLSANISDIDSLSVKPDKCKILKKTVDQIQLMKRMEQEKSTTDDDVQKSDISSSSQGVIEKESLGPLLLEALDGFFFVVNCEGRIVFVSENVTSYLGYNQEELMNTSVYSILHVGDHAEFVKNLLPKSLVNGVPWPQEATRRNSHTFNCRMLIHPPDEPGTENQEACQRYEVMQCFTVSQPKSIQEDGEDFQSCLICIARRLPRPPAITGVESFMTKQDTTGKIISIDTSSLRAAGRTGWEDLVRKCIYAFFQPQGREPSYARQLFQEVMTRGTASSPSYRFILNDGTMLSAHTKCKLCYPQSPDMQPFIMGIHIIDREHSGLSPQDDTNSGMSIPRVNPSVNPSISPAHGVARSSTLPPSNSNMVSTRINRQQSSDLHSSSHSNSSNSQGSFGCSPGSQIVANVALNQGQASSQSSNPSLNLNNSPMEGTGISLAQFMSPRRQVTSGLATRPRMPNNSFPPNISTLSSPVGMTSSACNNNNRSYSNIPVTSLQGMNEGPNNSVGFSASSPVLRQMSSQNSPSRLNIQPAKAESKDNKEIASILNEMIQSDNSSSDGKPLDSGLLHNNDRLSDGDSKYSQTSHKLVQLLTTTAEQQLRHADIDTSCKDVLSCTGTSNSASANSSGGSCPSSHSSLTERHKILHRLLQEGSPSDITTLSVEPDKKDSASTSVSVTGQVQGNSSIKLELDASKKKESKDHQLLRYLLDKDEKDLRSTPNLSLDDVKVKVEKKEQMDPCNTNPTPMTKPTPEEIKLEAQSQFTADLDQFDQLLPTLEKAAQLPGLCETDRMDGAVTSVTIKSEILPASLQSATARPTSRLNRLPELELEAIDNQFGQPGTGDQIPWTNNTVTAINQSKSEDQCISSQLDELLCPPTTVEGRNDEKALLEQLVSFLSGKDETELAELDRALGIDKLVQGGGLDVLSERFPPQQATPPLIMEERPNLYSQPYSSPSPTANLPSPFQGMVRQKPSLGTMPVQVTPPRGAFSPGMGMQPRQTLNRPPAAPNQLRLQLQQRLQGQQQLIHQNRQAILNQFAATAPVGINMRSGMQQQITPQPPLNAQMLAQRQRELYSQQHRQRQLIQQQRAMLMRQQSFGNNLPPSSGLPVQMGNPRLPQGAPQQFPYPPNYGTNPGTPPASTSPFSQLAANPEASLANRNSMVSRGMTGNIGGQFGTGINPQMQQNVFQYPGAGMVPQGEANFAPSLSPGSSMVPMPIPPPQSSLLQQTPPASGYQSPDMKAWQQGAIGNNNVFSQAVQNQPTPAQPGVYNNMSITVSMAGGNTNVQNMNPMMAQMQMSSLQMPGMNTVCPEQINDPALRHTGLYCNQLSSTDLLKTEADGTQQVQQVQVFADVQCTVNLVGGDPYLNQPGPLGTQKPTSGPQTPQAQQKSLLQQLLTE

[4] = target: Peroxisome proliferator-activated receptor gamma/Nuclear receptor coactivator 3 (Homo sapiens, UniProt P37231); experiment: as §1, with “3 (SRC-3)” for “2 (SRC-2)”, “1301 (Confirmation screen.), 1048 (Primary screen.)]” for “1297, 1032 ]”; type: functional
Peroxisome proliferator-activated receptor gamma/Nuclear receptor coactivator 3, sequence (P37231 whole entry): as the sequence (P37231 whole entry) above
Peroxisome proliferator-activated receptor gamma/Nuclear receptor coactivator 3, sequence (Q9Y6Q9 whole entry, further chain): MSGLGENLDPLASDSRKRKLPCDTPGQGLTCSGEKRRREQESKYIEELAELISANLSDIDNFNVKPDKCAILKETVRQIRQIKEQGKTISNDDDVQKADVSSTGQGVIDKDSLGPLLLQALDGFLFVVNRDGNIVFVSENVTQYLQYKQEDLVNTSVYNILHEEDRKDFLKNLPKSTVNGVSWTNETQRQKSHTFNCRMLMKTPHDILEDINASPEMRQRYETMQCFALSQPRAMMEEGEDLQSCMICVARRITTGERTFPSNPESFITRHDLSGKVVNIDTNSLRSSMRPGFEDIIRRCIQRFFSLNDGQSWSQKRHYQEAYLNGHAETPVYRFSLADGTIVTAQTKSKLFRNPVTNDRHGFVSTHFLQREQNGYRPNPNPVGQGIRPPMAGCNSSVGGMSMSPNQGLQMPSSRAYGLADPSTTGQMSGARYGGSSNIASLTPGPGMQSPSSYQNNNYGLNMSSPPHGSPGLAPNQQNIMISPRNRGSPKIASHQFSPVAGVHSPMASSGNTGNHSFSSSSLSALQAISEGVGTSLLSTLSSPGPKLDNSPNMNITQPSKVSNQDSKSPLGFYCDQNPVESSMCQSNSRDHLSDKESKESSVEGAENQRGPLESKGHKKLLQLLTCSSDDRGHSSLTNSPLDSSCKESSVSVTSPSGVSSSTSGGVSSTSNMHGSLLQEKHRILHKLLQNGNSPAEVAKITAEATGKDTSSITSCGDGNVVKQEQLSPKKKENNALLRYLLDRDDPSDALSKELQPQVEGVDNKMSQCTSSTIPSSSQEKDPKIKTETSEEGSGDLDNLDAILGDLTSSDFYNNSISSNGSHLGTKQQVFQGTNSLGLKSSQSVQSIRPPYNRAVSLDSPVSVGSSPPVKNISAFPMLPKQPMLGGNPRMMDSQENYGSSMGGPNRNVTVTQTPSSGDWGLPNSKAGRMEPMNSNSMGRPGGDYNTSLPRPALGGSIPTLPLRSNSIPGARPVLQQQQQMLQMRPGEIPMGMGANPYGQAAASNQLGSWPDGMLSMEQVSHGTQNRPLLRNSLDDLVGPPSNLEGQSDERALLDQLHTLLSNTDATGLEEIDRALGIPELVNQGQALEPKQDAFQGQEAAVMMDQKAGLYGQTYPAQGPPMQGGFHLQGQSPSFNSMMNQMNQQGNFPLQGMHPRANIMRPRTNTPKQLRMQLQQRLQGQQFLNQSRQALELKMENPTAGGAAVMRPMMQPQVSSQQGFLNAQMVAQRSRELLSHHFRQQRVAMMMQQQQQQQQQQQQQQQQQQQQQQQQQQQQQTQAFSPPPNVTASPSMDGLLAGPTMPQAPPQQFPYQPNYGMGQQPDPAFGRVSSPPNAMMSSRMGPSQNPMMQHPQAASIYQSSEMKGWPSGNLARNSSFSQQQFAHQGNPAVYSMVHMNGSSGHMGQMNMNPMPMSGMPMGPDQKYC

Cytochrome P450 2C19 = Cytochrome P450 2C19 (Homo sapiens, UniProt P33261); experiment: Cytochrome panel assay with activity outcomes. Panel member name: p450-cyp2c19 Compounds with AC50 equal or less than 10 uM are considered active; type: functional
Cytochrome P450 2C19, sequence (P33261 whole entry): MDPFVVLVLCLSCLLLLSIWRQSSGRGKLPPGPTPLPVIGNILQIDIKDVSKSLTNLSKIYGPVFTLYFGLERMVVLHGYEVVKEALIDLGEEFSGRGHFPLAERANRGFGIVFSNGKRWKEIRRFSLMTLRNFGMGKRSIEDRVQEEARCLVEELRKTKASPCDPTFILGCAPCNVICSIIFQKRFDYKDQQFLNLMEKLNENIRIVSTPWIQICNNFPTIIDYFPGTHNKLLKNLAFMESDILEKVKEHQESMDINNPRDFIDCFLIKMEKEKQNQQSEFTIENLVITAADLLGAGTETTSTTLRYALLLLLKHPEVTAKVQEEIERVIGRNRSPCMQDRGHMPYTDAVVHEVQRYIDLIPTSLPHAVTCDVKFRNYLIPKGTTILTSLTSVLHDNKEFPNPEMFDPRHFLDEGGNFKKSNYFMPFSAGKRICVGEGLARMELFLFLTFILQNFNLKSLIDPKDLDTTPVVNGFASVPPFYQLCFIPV

Cytochrome P450 2C9 = Cytochrome P450 2C9 (Homo sapiens, UniProt P11712)
Cytochrome P450 2C9, sequence (P11712 whole entry): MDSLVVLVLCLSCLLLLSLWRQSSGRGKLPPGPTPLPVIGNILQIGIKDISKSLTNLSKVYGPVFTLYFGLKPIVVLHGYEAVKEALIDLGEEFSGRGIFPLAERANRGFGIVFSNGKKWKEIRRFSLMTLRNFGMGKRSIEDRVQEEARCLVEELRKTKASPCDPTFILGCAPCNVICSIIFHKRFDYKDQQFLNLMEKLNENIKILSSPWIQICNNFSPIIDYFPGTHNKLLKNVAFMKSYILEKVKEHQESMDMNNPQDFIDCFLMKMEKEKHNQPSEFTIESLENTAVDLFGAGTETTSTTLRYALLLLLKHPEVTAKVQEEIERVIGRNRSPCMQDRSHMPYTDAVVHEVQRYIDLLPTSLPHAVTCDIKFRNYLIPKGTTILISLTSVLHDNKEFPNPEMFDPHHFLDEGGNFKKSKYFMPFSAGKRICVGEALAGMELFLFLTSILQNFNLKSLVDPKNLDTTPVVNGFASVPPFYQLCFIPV

[5] = target: DNA dC->dU-editing enzyme APOBEC-3G (Homo sapiens, UniProt Q9HC16); type: functional;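 also: Dose-response counterscreen measuring inhibition of APOBEC3G DNA deaminase activity, run while confirming APOBEC3A inhibitors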
[6] = target: DNA dC->dU-editing enzyme APOBEC-3A (Homo sapiens, UniProt P31941); experiment: Dose Response confirmation of small molecule APOBEC3A DNA Deaminase Inhibitors via a fluorescence-based single-stranded DNA deaminase assay. [Related pubchem assays (depositor defined):AID493011, AID493024]; type: functional
DNA dC->dU-editing enzyme APOBEC-3A, sequence (P31941 whole entry): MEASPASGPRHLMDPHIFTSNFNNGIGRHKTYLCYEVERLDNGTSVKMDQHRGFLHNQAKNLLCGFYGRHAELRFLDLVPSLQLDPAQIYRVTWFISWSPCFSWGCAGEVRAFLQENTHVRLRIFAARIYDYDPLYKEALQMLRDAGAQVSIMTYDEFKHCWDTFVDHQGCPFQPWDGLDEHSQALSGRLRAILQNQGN

[7] = cytotoxicity in HEK-293T cells, dose response, cytotoxicity control for BCR NF-kB inhibitor project, luminescence, B-cell screen hits (AID 489021); type: functional, cell-based;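 also: HEK-293T cells carrying an NF-kB luciferase reporter; cells exposed to compound for about 14 hours before viability readout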
Cytochrome P450 2D6 = Cytochrome P450 2D6 (Homo sapiens, UniProt P10635);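 also: CYP2D6 member of a cytochrome P450 panel assay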
HEK293 [8] = experiment: NOD2 signaling inhibitors in MDP-stimulated cells, cell-based, uHTS, luminescence (AID 2001); type: functional; details: Homo sapiens
HEK293 [9] = experiment: NOD1 signaling inhibitors, primary screen, cell-based, luminescence, uHTS (AID 1578); type: functional; details: Homo sapiens
HEK293 [10] = experiment: cells; type: functional, cell-based; details: Homo sapiens
HEK293 [11] = experiment: cells; type: functional, cell-based; details: Homo sapiens; remark: listed apart in the source
[12] = target: T1, Alkaline phosphatase, tissue-nonspecific isozyme (Homo sapiens, UniProt P05186); experiment: human TNAP enzyme inhibitors, SAR follow-up, biochemical, luminescent, dose response (AID 1056)
T1 sequence (P05186 whole entry): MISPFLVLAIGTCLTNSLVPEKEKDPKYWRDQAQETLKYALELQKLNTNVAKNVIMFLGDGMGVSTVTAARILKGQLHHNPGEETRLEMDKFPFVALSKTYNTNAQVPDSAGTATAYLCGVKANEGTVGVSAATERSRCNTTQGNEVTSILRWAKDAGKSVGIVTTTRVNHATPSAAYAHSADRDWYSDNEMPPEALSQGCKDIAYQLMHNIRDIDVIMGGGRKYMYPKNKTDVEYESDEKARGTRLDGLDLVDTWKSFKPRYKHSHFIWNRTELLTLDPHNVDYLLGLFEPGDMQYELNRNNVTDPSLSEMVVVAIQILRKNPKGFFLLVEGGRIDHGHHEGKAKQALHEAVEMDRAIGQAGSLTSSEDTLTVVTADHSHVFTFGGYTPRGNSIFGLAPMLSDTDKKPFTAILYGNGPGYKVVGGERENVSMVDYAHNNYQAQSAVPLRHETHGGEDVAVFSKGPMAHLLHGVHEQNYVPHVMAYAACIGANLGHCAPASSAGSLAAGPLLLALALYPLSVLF

[13] = target: Alkaline phosphatase, placental type (Homo sapiens, UniProt P05187); experiment: PLAP enzyme inhibitors, confirmation, biochemical, luminescence (AID 1512); type: functional
[14] = C. albicans growth with fluconazole, confirmation, fluorescence, retest (AID 2467); type: functional, cell-based
[15] = NIH-3T3 fibroblast cytotoxicity, dose response, cytotoxicity control, cell-based, fluorescence, Alamar Blue, secondary assay (AID 2327); type: functional;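 also: NIH-3T3 mouse fibroblasts cultured with fluconazole at 8 µg/mL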
[16] = target: ATP-dependent molecular chaperone HSP82 (Candida albicans (strain WO-1) (Yeast), UniProt C4YTQ8); experiment: loss of DOC-induced GRE-beta-galactosidase reporter signal, dose response, Hsp90 inhibitor project, S. cerevisiae, luminescence (AID 2400); type: functional, cell-based;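 also: beta-galactosidase luminescence from glucocorticoid response element reporter as proxy for Hsp90 function; inhibitor potency where signal loss means Hsp90 inhibition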
Aminopeptidase N = target: T2, Aminopeptidase N (Plasmodium falciparum FcB1/Columbia, UniProt O96935); experiment: P. falciparum M1AAP inhibitors, biochemical, fluorogenic H-Leu-NHMec substrate, 1536-well (AID 1445); design: species or system Plasmodium falciparum 3D7, 3D7
T2 sequence (O96935 whole entry): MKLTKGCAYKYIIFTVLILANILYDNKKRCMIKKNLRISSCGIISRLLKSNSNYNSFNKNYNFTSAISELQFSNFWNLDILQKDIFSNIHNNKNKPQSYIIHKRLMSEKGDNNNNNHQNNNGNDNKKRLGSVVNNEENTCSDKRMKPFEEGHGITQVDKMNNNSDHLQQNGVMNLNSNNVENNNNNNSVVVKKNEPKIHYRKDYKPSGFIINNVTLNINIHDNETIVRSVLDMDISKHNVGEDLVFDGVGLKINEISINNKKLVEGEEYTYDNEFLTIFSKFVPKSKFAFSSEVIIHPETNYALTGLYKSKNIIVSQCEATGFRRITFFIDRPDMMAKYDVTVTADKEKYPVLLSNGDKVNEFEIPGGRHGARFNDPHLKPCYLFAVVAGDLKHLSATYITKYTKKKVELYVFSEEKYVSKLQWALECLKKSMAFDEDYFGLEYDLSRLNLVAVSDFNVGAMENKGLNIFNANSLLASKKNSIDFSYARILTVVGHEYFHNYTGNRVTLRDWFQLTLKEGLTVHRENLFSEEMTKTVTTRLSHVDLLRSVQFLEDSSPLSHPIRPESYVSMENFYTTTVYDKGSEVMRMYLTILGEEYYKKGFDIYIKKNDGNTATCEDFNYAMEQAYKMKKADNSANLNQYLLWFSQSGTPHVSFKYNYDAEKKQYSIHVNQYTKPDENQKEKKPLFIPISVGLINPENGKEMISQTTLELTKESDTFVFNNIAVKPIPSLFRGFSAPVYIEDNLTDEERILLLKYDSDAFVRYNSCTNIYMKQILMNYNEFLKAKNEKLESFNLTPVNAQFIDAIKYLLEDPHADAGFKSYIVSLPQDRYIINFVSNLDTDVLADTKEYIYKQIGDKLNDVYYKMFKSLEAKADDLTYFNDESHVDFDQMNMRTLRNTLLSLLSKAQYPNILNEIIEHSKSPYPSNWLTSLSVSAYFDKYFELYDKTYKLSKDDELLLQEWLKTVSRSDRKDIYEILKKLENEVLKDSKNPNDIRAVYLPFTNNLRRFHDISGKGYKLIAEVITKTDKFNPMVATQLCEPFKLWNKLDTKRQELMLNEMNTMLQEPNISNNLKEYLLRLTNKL

[17] = target: T3, Serine/threonine-protein phosphatase (Candida dubliniensis (strain CD36 / CBS 7987 / NCPF 3949 / NRRLY-17841) (Yeast), UniProt B9W6M3); experiment: calcineurin pathway inhibitors in yeast reporter, dose response, S. cerevisiae, CDRE-lacZ, luminescence, secondary (AID 2388); type: functional, cell-based;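 also: yeast reporter cells carrying a calcineurin-responsive lacZ construct stimulated with calcium chloride; luminescent beta-galactosidase reporter signal in whole cells rather than isolated phosphatase activity; potency for inhibition where a drop in reporter signal means calcineurin blockade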
T3 sequence (B9W6M3 whole entry): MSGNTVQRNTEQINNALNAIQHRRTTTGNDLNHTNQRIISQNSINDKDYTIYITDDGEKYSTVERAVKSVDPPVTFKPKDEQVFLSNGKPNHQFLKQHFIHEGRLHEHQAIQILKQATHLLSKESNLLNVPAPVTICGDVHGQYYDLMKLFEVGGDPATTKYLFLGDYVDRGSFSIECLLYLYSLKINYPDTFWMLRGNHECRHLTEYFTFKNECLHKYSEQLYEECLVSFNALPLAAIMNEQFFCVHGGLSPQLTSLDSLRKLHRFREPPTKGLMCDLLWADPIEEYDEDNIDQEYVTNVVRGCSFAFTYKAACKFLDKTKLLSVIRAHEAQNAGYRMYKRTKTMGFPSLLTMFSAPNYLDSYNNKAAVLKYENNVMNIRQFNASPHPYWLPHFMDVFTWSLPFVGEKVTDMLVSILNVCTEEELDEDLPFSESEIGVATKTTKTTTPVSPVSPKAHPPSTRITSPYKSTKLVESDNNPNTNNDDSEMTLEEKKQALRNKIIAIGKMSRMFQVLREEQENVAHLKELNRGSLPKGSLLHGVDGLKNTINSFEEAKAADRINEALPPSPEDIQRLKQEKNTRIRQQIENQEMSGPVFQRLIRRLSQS

EC50 [1]: 5.65 µM (active)
SMILES: Cc1cccc(N2CCN(C(=O)CCCOc3ccccc3)CC2)c1C

EC50 [1]: 5.15 µM (active)
SMILES: Cc1cnc(Nc2nc3ccccc3o2)nc1C(=O)Nc1cccc(C(F)(F)F)c1

EC50 [2]: 5.64 µM (active)
EC50 [3]: 5.96 µM (active)
EC50 [4]: > 8.82 µM (not active)
AC50 (Cytochrome P450 2C19; read-out: AC50): 39.8 µM (inconclusive)
AC50 (Cytochrome P450 2C9): inconclusive
SMILES: Cc1ccc(Sc2ccc(NC(=O)c3ccc(S(C)(=O)=O)cc3Cl)cc2)cc1

SMILES: C[N+]1(CCCOC(=O)C2(c3ccccc3)CCCC2)CCOCC1
IC50 [5]: 1.99 µM (active)
IC50 [6]: 1.61 µM (active)

EC50 [2]: > 26.5 µM (not active)
EC50 [3]: > 79.4 µM (inactive)
EC50 [4]: > 79.4 µM (not active)
SMILES: Cn1c(=O)cc(SCC(=O)NCCCN2CCN(c3ccc(F)cc3)CC2)c2ccccc21

EC50 [1]: 4.75 µM (active)
SMILES: Cc1ccc(-c2nnc(CSc3nnc(COc4ccccc4)n3-c3ccc(C)cc3)o2)cc1

SMILES: O=C(CN1C(=O)c2ccccc2S1(=O)=O)c1ccc(OC(F)F)cc1
IC50 [7]: > 80 µM (inactive)

SMILES: CC(C)CNC(=O)O
AC50 (Cytochrome P450 2D6): inconclusive
AC50 (Cytochrome P450 2C19): inconclusive

SMILES: COc1cc(C(=O)NCCOc2cc(C)ccc2C(C)C)cc(OC)c1OC
IC50 (HEK293 [8]): 5.42 µM (active)
EC50 (HEK293 [9]): 3.03 µM (active)
IC50 (HEK293 [10]): 5.52 µM (active)
IC50 (HEK293 [11]): 12 µM (active)

IC50 [12]: 17.8 µM (active)
IC50 [13]: 5.59 µM (active)
SMILES: C=CCn1c(SCC(=O)c2ccc(O)c(O)c2)nnc1-c1cccc(C)c1

EC50 [2]: > 79.4 µM (not active)
EC50 [3]: > 79.4 µM (inactive)
EC50 [4]: > 79.4 µM (not active)
SMILES: CCOC(=O)C1CCN(C(=O)CSc2cc(=O)n(C)c3ccccc23)CC1

SMILES: O=C(O)c1ccccc1-c1ccccc1C(=O)Nc1cccc(-c2nc3ccccc3o2)c1
EC50 [14]: 2.62 µM (active)
EC50 [15]: > 160 µM (inactive)
EC50 [16]: > 150 µM (inactive)
IC50 (Aminopeptidase N): 16.4 µM (active)
EC50 [17]: > 180 µM (inactive)
